Assay results reported in US9012617B2, “Detection reagents for tyrosine kinase activity and methods of use thereof” (The Trustees of The University of Pennsylvania, priority 2011, dated 2015).

Tests used:
EphB2 = biological target: T1, EphB2 (Homo sapiens, UniProt P29323); assay: EphB2 kinetics imaging in HEK 293T cells transfected with GPhosEphB and EphB2; format: cell-based; conditions: Disassociation rate of EphB2 receptor after Genistien treatment (10 μm)
T1 construct: expressed in transfected cells; host or cells: HEK 293T
T1 sequence (P29323 19-1055): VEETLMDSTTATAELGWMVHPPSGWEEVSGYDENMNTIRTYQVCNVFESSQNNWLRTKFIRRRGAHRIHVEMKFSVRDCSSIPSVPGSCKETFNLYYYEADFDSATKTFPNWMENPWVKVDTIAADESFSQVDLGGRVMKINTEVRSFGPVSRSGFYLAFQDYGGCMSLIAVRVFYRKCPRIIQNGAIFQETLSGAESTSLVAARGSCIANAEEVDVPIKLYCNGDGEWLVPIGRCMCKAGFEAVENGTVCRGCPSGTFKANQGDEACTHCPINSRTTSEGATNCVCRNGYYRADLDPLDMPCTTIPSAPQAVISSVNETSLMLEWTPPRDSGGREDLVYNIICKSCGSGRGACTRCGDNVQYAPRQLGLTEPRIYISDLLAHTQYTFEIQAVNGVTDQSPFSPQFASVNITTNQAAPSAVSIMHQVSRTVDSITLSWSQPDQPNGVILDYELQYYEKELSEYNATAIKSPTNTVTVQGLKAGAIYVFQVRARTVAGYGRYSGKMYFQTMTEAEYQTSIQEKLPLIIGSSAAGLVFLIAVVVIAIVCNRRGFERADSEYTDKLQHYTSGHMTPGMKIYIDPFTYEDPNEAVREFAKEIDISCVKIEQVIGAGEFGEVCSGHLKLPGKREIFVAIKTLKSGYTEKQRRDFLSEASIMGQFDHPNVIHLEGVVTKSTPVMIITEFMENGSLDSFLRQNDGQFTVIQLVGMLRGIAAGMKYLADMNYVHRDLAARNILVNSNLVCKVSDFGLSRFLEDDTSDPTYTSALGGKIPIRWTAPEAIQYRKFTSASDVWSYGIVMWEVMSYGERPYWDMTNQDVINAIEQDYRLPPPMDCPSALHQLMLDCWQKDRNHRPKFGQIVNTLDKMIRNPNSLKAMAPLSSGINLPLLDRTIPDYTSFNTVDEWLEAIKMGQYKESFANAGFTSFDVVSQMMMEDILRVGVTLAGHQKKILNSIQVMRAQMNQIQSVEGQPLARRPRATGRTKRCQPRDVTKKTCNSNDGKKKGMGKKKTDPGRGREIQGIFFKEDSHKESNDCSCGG
Method: (§1) Cells were imaged in ACSF on a spinning disk confocal (PerkinElmer) encased in a humidified temperature controlled incubator attached to a CCD-EM camera (Hamamatsu). Images were taken as a […] z-projection ([…] step size) every 20 seconds. After a 2 minute baseline, cells were treated and imaged with either DyLight 649 (Jackson Immunoresearch) labeled EphrinB2-FC or DyLight 649 labeled EphrinA1-FC (both at 500 ng/ml) for 15 minutes. Before continuing the experiment, bath was exchanged with fresh ASCF. Genistien (10 μm; Calbiochem) was added to previously imaged cells after a 2 minute baseline and imaged for an additional 15 minutes. Images were collected via Volocity software and analyzed using NIH ImageJ as detailed below.
(§2) Image analysis was conducted off-line using NIH ImageJ using both custom and standard macros. […] Ratio change was calculated as DF/F=(F−F0)/F0 (Yuste and Konnerth, 2005). Significance between conditions was determined by two-way ANOVA with Bonferroni post-hoc tests. Receptor “on” kinetics were calculated as one-phase association, and “off” kinetics were calculated as one-phase decay. All statistical measures were conducted using GraphPad Prism version 5.00 (GraphPad Software, San Diego, Calif.) on a per coverslip basis with several cells analyzed per coverslip from a minimum of three independent experiments. […]

EphA4 = biological target: T2, EphA4 (Homo sapiens, UniProt P54764); assay: EphA4 kinetics imaging in HEK 293T cells transfected with GPhosEphA and EphA4; format: cell-based; conditions: Disassociation rate of EphA4 receptor after Genistien treatment (10 μm)
T2 construct: expressed in transfected cells; host or cells: HEK 293T
T2 sequence (P54764 20-986, species assumed): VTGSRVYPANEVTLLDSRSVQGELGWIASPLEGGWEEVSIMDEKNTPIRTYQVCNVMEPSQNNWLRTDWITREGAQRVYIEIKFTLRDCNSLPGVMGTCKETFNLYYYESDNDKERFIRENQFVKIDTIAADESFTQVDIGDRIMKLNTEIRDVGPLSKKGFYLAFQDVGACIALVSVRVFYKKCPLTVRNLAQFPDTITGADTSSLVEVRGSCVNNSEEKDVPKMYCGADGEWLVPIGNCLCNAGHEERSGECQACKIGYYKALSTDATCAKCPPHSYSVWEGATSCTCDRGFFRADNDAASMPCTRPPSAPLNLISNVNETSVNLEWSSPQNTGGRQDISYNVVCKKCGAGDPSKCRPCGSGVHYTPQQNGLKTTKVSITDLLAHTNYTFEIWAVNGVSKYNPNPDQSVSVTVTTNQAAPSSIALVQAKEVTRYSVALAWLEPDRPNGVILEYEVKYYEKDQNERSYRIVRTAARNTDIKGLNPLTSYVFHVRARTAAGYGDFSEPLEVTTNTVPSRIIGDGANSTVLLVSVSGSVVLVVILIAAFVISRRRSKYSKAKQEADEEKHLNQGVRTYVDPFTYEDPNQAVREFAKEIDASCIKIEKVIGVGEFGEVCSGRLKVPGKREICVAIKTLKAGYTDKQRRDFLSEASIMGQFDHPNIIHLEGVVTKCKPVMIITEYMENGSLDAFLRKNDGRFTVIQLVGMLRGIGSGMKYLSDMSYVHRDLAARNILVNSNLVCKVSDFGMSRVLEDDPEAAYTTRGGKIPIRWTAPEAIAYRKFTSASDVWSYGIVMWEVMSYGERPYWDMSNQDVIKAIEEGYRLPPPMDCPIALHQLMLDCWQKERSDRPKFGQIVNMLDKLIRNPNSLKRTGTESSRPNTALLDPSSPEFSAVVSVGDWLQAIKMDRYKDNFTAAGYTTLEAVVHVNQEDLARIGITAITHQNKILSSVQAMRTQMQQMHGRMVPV
Method: as §1, §2

- One phase decay Tau (EphB2): 1.588
- One phase decay Tau (EphA4): 0.8484
SMILES: O=c1c(-c2ccc(O)cc2)coc2cc(O)cc(O)c12 [Genistein]
